Test results reported in patent publication US20230257372A1 (CHONG KUN DANG PHARMACEUTICAL CORP., priority 2020, published 2023).

Assays:
human recombinant HDAC6 = target: T1, human recombinant HDAC6 (Homo sapiens, UniProt Q9UBN7); test: HDAC6 enzyme activity inhibition (HDAC Fluorimetric Drug Discovery Kit); type: biochemical; conditions: for HDAC6 selectivity (fold): HDAC1 IC50 / HDAC6 IC50; for IC50: human recombinant HDAC6, IC50 calculated with GraphPad Prism
T1 construct: purchased Calbiochem Inc. 382180
T1 sequence (Q9UBN7 1-1215): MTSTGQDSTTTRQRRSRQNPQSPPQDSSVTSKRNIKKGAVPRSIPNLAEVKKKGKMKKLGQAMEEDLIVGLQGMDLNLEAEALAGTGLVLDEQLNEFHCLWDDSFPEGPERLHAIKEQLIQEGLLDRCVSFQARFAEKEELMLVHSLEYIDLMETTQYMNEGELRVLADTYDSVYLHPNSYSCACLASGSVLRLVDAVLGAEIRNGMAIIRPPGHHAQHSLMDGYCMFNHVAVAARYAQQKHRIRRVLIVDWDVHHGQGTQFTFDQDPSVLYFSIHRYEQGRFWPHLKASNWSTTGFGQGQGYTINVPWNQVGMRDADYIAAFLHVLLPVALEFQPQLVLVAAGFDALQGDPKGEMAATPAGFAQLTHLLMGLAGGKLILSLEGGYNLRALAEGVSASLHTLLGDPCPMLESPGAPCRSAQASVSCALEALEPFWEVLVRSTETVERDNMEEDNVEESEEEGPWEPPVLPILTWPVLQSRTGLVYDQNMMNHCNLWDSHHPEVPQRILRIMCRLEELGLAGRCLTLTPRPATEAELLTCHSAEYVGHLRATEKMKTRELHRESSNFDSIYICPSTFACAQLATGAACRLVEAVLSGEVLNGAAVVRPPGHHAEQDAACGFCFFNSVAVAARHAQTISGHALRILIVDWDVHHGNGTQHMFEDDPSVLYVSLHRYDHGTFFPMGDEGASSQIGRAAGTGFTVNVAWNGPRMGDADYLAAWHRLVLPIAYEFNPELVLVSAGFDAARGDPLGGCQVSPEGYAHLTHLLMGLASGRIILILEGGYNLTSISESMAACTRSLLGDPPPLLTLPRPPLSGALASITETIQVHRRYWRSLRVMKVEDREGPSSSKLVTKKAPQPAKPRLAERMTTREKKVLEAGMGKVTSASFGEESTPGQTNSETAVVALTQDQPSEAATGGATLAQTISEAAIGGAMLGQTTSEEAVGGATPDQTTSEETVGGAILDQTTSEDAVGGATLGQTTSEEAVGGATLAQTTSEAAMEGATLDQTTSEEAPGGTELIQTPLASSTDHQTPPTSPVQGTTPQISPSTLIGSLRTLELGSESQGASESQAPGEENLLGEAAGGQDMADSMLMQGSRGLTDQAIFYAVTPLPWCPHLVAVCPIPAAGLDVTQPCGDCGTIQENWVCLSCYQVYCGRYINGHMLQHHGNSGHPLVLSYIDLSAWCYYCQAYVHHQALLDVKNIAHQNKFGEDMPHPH
How it was run: (§1)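 Each isoform is run in the same format: compound dilutions (5-fold steps), 10 μM substrate, […] enzyme, one hour at 30° C, then 30 minutes with developer before fluorescence readout.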

[1] = system: hippocampal neurons from a Sprague-Dawley (SD) rat fetus; test: Effect of HDAC6-specific inhibitor on axonal transport of mitochondria in amyloid-beta treated neurons; type: cell-based; conditions: transport velocity of mitochondria in neuronal axon after normalization; vehicle = 100%, amyloid beta treatment group = 0%; compound treatment for three hours
Procedure: On the 17th to 18th days (E17-18) of insemination, the hippocampal neurons from a Sprague-Dawley (SD) rat fetus were cultured in a culture container for imaging, which had been coated with extracellular matrix, and were treated with amyloid-beta protein fragments at a concentration of […]. In 24 hours later, the neurons were treated with the compound on the 8th day of in vitro culture. In three hours later, the resulting neurons were treated with MitoTracker Red CMXRos (Life Technologies, NY, USA) for last five minutes to stain mitochondria. An image on the axonal transport of stained neuron mitochondria was taken with a confocal microscope (Leica SP8; Leica microsystems, UK) at an interval of one second for one minute to measure a transport velocity of each mitochondria per second with an IMARIS analysis program (BITPLANE, Zurich, Switzerland).
In result, after setting a section, in which the group treated with amyloid-beta had shown a significant decrease in the transport velocity of mitochondria compared to a vehicle, it was confirmed for 1,3,4-oxadiazole triazol derivative compounds of the present invention, stereoisomers thereof or pharmaceutically acceptable salts thereof that the vehicles is represented as 100%, the amyloid beta treatment group is represented as 0%, a velocity distribution of the compound after normalization is represented as *, 0%˜50%; **, 50%˜100%; ***, >100%.

human recombinant HDAC1 = target: T2, human recombinant HDAC1 (Homo sapiens, UniProt Q13547); test: HDAC1 enzyme activity inhibition (HDAC Fluorimetric Drug Discovery Kit); type: biochemical; conditions: human recombinant HDAC1; IC50 calculated with GraphPad Prism; read-out: HDAC1
T2 construct: purchased Enzo Life Science, Inc. BML-SE456
How it was run: as §1

T2 sequence (Q13547 whole entry): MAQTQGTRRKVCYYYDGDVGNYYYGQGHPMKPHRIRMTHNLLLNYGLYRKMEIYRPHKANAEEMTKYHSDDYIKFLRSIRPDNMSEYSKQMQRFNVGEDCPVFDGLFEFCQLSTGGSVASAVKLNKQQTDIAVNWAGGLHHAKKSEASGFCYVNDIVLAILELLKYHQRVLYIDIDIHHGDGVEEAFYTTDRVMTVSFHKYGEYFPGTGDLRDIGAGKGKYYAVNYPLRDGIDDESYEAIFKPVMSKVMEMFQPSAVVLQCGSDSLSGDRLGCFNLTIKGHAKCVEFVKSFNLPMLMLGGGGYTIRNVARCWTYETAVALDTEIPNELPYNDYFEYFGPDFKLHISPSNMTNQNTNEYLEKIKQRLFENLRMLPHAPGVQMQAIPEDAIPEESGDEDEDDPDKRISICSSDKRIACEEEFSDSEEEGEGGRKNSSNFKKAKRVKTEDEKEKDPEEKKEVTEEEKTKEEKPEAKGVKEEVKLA

Row | SMILES | HDAC6 selectivity (fold) (human recombinant HDAC6) | IC50 (human recombinant HDAC6) | Velocity distribution (%) [1] | IC50 (human recombinant HDAC1)
1 | Cc1ccc(-c2cn(Cc3ccc(-c4nnc(C(F)F)o4)cn3)nn2)cn1 [Compound 3925, 2-(difluoromethyl)-5-(6-((4-(6-methylpyridin-3-yl)-1H-1,2,3-triazol-1-yl)methyl)pyridin-3-yl)-1,3,4-oxadiazole] | 1424 fold | 0.0351 µM | *** (***, >100%) | > 50 µM
2 | FC(F)c1nnc(-c2ccc(Cn3cc(-c4ccc5c(CN6CCOCC6)c[nH]c5c4)nn3)nc2)o1 [Compound 3944, 4-((6-(1-((5-(5-(difluoromethyl)-1,3,4-oxadiazol-2-yl)pyridin-2-yl)methyl)-1H-1,2,3-triazol-4-yl)-1H-indol-3-yl)methyl)morpholine] | 7462 fold | 0.0067 µM | * (*, 0%˜50%) | > 50 µM
3 | CN(C)Cc1c[nH]c2cc(-c3cn(Cc4ccc(-c5nnc(C(F)F)o5)cn4)nn3)ccc12 [Compound 3962, 1-(6-(1-((5-(5-(difluoromethyl)-1,3,4-oxadiazol-2-yl)pyridin-2-yl)methyl)-1H-1,2,3-triazol-4-yl)-1H-indol-3-yl)-N,N-dimethylmethanamine] | 4629 fold | 0.0108 µM | *** (***, >100%) | > 50 µM
4 | CN1CCN(Cc2c[nH]c3cc(-c4cn(Cc5ccc(-c6nnc(C(F)F)o6)cn5)nn4)ccc23)CC1 [Compound 3986, 2-(difluoromethyl)-5-(6-((4-(3-((4-methylpiperazin-1-yl)methyl)-1H-indol-6-yl)-1H-1,2,3-triazol-1-yl)methyl)pyridin-3-yl)-1,3,4-oxadiazole] | 6756 fold | 0.0074 µM | *** (***, >100%) | > 50 µM
5 | CC(C)(F)C(=O)Nc1cccc(-c2cn(Cc3ccc(-c4nnc(C(F)F)o4)cn3)nn2)c1 [Compound 3987, N-(3-(1-((5-(5-(difluoromethyl)-1,3,4-oxadiazol-2-yl)pyridin-2-yl)methyl)-1H-1,2,3-triazol-4-yl)phenyl)-2-fluoro-2-methylpropanamide] | 5494 fold | 0.0091 µM | * (*, 0%˜50%) | > 50 µM
6 | CC(=O)N1CCN(c2cccc(-c3cn(Cc4ccc(-c5nnc(C(F)F)o5)cn4)nn3)c2)CC1 [Compound 3990, 1-(4-(3-(1-((5-(5-(difluoromethyl)-1,3,4-oxadiazol-2-yl)pyridin-2-yl)methyl)-1H-1,2,3-triazol-4-yl)phenyl)piperazin-1-yl)ethan-1-one] | 2631 fold | 0.019 µM | ** (**, 50%˜100%) | > 50 µM
7 | CCC(=O)N1CCN(c2cccc(-c3cn(Cc4ccc(-c5nnc(C(F)F)o5)cn4)nn3)c2)CC1 [Compound 3991] | 1773 fold | 0.0282 µM | ** (**, 50%˜100%) | > 50 µM
8 | CN1CCC(c2cccc(-c3cn(Cc4ccc(-c5nnc(C(F)F)o5)cn4)nn3)c2)CC1 [Compound 4010, 2-(difluoromethyl)-5-(6-((4-(3-(1-methylpiperidin-4-yl)phenyl)-1H-1,2,3-triazol-1-yl)methyl)pyridin-3-yl)-1,3,4-oxadiazole] | 2369 fold | 0.0211 µM | *** (***, >100%) | > 50 µM
9 | CC(C)N1CCC(c2cccc(-c3cn(Cc4ccc(-c5nnc(C(F)F)o5)cn4)nn3)c2)CC1 [Compound 4012, 2-(difluoromethyl)-5-(6-((4-(3-(1-isopropylpiperidin-4-yl)phenyl)-1H-1,2,3-triazol-1-yl)methyl)pyridin-3-yl)-1,3,4-oxadiazole] | 2358 fold | 0.0212 µM | *** (***, >100%) | > 50 µM
10 | FC(F)c1nnc(-c2ccc(Cn3cc(-c4cccc(C5CCN(C6COC6)CC5)c4)nn3)nc2)o1 [Compound 4013, 2-(difluoromethyl)-5-(6-((4-(3-(1-(oxetan-3-yl)piperidin-4-yl)phenyl)-1H-1,2,3-triazol-1-yl)methyl)pyridin-3-yl)-1,3,4-oxadiazole] | 2183 fold | 0.0229 µM | ** (**, 50%˜100%) | > 50 µM
11 | CCN1CCc2cc(-c3cn(Cc4ccc(-c5nnc(C(F)F)o5)cn4)nn3)ccc2C1 [Compound 4052, 2-(difluoromethyl)-5-(6-((4-(2-ethyl-1,2,3,4-tetrahydroisoquinolin-6-yl)-1H-1,2,3-triazol-1-yl)methyl)pyridin-3-yl)-1,3,4-oxadiazole] | 1128 fold | 0.0443 µM | ** (**, 50%˜100%) | > 50 µM
12 | FC(F)c1nnc(-c2ccc(Cn3cc(-c4ccc5c(c4)CCN(C4COC4)C5)nn3)nc2)o1 [Compound 4055, 2-(difluoromethyl)-5-(6-((4-(2-(oxetan-3-yl)-1,2,3,4-tetrahydroisoquinolin-6-yl)-1H-1,2,3-triazol-1-yl)methyl)pyridin-3-yl)-1,3,4-oxadiazole] | 868 fold | 0.0576 µM | * (*, 0%˜50%) | > 50 µM
13 | CC(C)N1CCN(c2cccc(-c3cn(Cc4ccc(-c5nnc(C(F)F)o5)cn4)nn3)c2)CC1 [Compound 4070, 2-(difluoromethyl)-5-(6-((4-(3-(4-isopropylpiperazin-1-yl)phenyl)-1H-1,2,3-triazol-1-yl)methyl)pyridin-3-yl)-1,3,4-oxadiazole] | 1298 fold | 0.0385 µM | ** (**, 50%˜100%) | > 50 µM
14 | FC(F)c1nnc(-c2ccc(Cn3cc(-c4ccc5[nH]ccc5c4)nn3)nc2)o1 [Compound 4072, 2-(6-((4-(1H-indol-5-yl)-1H-1,2,3-triazol-1-yl)methyl)pyridin-3-yl)-5-(difluoromethyl)-1,3,4-oxadiazole] | 4854 fold | 0.0103 µM | ** (**, 50%˜100%) | > 50 µM
15 | FC(F)c1nnc(-c2ccc(Cn3cc(-c4ccc5occc5c4)nn3)nc2)o1 [Compound 4073, 2-(6-((4-(benzofuran-5-yl)-1H-1,2,3-triazol-1-yl)methyl)pyridin-3-yl)-5-(difluoromethyl)-1,3,4-oxadiazole] | 822 fold | 0.0608 µM | ** (**, 50%˜100%) | > 50 µM
16 | FC(F)c1nnc(-c2ccc(Cn3cc(-c4cccc(-n5ccnc5)c4)nn3)nc2)o1 [Compound 4075, 2-(6-((4-(3-(1H-imidazol-1-yl)phenyl)-1H-1,2,3-triazol-1-yl)methyl)pyridin-3-yl)-5-(difluoromethyl)-1,3,4-oxadiazole] | 3048 fold | 0.0164 µM | *** (***, >100%) | > 50 µM
